Data as given in ChEMBL document CHEMBL4014314, “Rational Design of Bisubstrate-Type Analogues as Inhibitors of DNA Methyltransferases in Cancer Cells” (J Med Chem, 2017).

Columns and labels:
[1] = molecular target: T1, DNA (cytosine-5)-methyltransferase 1 (Homo sapiens, UniProt P26358); assay: Inhibition of full length His-tagged human DNMT1 using SAM/[methyl-3H]SAM assessed as reduction of methylation in biotinylated hemimethylated DNA duplex at 100 uM after 1 hr by scintillation counting method relative to control
[2] = molecular target: T2, DNA (cytosine-5)-methyltransferase 3A (Homo sapiens, UniProt Q9Y6K1); assay: Inhibition of human DNMT3A catalytic domain using AdoMet assessed as reduction of methylation in 5'-biotin/3' 6-carboxyfluorescein labeled DNA duplex at CpG site at 32 uM after 1 hr by fluorescence assay relative to control
[3] = molecular target: T2, DNA (cytosine-5)-methyltransferase 3A; assay: Inhibition of human DNMT3A catalytic domain using AdoMet assessed as reduction of methylation in 5'-biotin/3' 6-carboxyfluorescein labeled DNA duplex at CpG site at 10 uM after 1 hr by fluorescence assay relative to control
[4] = molecular target: T1, DNA (cytosine-5)-methyltransferase 1; assay: Inhibition of full length His-tagged human DNMT1 using SAM/[methyl-3H]SAM assessed as reduction of methylation in biotinylated hemimethylated DNA duplex at 32 uM after 1 hr by scintillation counting method relative to control

T2 sequence (Q9Y6K1 whole entry, looked up, the tested form may be a part): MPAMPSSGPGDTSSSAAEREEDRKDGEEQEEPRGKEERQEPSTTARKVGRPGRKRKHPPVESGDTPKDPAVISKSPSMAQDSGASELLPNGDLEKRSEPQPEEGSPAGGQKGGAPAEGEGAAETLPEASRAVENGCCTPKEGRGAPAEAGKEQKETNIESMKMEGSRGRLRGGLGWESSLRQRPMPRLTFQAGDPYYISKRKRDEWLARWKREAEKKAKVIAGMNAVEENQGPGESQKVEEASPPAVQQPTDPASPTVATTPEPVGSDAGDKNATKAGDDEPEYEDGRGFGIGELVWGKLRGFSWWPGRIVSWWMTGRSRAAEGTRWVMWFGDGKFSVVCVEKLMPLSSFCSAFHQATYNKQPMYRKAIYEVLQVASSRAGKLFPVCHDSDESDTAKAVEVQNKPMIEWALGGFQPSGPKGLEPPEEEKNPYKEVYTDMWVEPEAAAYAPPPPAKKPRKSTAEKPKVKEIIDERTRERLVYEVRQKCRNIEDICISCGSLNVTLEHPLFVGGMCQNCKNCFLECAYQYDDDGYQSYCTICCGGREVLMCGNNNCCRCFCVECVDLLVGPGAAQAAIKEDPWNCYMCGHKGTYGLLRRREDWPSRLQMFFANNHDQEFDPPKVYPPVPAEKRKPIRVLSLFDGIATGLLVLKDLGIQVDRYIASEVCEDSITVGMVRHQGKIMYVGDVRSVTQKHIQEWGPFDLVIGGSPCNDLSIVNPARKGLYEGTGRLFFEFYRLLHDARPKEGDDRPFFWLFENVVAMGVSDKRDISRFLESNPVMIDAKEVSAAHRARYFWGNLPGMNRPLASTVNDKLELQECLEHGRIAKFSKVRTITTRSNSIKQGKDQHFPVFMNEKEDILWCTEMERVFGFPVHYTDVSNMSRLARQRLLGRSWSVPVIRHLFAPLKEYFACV
T1 sequence (P26358 whole entry, the tested form may be a part): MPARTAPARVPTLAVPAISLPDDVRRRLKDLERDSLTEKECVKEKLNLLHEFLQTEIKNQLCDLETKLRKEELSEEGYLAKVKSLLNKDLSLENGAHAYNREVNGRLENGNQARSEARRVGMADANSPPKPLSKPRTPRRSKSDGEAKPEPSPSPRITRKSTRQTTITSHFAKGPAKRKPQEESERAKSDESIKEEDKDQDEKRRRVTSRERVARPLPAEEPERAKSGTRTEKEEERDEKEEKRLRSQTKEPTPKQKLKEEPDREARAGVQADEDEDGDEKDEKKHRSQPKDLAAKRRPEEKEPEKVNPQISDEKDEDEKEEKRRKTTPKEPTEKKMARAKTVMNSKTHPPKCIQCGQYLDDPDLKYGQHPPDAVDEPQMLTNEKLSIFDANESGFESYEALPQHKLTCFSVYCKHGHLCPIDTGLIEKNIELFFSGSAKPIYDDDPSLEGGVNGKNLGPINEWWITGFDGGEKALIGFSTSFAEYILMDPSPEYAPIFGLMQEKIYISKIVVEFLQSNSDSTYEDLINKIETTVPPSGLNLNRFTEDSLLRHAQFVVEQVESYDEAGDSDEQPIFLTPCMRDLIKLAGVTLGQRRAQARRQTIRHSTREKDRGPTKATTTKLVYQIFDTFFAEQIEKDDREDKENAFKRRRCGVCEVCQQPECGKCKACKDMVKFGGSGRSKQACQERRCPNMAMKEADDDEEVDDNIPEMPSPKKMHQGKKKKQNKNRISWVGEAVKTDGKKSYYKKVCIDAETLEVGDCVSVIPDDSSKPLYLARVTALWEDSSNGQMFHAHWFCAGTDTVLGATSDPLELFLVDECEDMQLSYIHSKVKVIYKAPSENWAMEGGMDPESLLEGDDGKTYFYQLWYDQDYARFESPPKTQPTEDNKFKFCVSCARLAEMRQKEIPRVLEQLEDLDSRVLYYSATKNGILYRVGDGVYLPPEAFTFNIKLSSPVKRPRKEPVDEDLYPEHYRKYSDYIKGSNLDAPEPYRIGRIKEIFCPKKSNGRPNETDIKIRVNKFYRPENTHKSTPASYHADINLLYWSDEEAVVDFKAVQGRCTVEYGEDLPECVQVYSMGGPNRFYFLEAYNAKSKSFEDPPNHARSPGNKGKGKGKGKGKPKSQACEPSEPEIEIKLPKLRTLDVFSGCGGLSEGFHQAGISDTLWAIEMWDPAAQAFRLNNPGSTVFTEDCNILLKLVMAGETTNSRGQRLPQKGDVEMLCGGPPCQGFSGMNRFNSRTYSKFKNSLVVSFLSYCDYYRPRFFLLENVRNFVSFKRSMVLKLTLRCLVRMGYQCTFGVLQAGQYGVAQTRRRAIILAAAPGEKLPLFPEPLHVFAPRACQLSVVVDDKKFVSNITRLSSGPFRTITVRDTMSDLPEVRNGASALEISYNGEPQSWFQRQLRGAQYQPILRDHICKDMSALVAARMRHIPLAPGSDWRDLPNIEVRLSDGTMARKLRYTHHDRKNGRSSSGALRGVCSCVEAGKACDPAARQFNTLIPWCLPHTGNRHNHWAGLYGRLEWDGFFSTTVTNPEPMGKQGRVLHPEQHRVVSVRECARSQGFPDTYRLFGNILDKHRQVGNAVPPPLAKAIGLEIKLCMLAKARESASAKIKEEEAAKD

inhibition [1] [%] | inhibition [2] [%] | inhibition [3] [%] | inhibition [4] [%] | SMILES
6 | 0 | 0 | 0 | c1ccc(CCCNc2ncnc3cc(OCC4CCN(c5ccnc6ccccc56)CC4)ccc23)cc1
48 | 0 | 0 | 0 | FC(F)(F)c1ccc2c(NCCN3CCC(COc4ccc5c(NCCCc6ccccc6)ncnc5c4)CC3)ccnc2c1
0 | 0 | 0 | 0 | COCn1ccc(NCCNCCCOc2ccc3c(NCCCc4ccccc4)ncnc3c2)nc1=O
97 | 96 | 68 | 59 | Nc1ccc(CCNc2ncnc3cc(OCC4CCN(CCNc5ccnc6ccccc56)CC4)ccc23)cc1
0 | 0 | 0 | 0 | c1ccc(CCCNc2ncnc3cc(OCC4CCN(CCNc5cccc6cnccc56)CC4)ccc23)cc1
83 | 67 | 37 | 0 | c1ccc(CCCNc2ncnc3cc(OCCN4CCN(CCNc5ccnc6ccccc56)CC4)ccc23)cc1
95 | 69 | 28 | 0 | CCCNc1ncnc2cc(OCC3CCN(CCNc4ccnc5ccccc45)CC3)ccc12
0 | 60 | 50 | 0 | c1ccc(CCCNc2ncnc3cc(OCC4CCN(CCNc5cccc6ncccc56)CC4)ccc23)cc1
16 | 60 | 47 | 0 | c1ccc(CCCNc2ncnc3cc(OCC4CCN(CCNc5ccc6ncccc6c5)CC4)ccc23)cc1
11 | 44 | 10 | 0 | COCn1ccc(NCCN2CCC(COc3ccc4c(NCCCc5ccccc5)ncnc4c3)CC2)nc1=O
34 | 72 | 47 |  | c1ccc(CCCNc2ncnc3cc(OCC4CCN(CCNc5ccncc5)CC4)ccc23)cc1
50 | 90 | 74 | 21 | Cn1ccc2cc(NCCN3CCC(COc4ccc5c(NCCCc6ccccc6)ncnc5c4)CC3)ccc21
90 | 99 | 65 | 0 | O=c1c2ccc(OCC3CCN(CCNc4ccnc5ccccc45)CC3)cc2ncn1CCCc1ccccc1
57 | 66 | 53 | 10 | CN(CCN1CCC(COc2ccc3c(NCCCc4ccccc4)ncnc3c2)CC1)c1ccnc2ccccc12
71 | 88 | 62 | 0 | c1ccc(CN2CCN(CCNc3ncnc4cc(OCC5CCN(CCNc6ccnc7ccccc67)CC5)ccc34)CC2)cc1
59 | 72 | 74 | 0 | Oc1ccc2c(NCCN3CCC(COc4ccc5c(NCCCc6ccccc6)ncnc5c4)CC3)ccnc2c1
26 | 81 | 43 | 22 | c1ccc(CNc2ncnc3cc(OCC4CCN(CCNc5ccnc6ccccc56)CC4)ccc23)cc1
72 | 74 | 54 | 0 | O=[N+]([O-])c1ccc(CCNc2ncnc3cc(OCC4CCN(CCNc5ccnc6ccccc56)CC4)ccc23)cc1
79 | 62 | 70 | 33 | Clc1ccc2c(NCCN3CCC(COc4ccc5c(NCCCc6ccccc6)ncnc5c4)CC3)ccnc2c1

inhibition [1] [%] | inhibition [2] [%] | inhibition [3] [%] | inhibition [4] [%] | SMILES
15 | 77 | 66 | 8 | CN(C)c1ccc(NCCN2CCC(COc3ccc4c(NCCCc5ccccc5)ncnc4c3)CC2)c2ccccc12
81 | 93 | 66 | 36 | Oc1cc2nccc(NCCN3CCC(COc4ccc5c(NCCCc6ccccc6)ncnc5c4)CC3)c2cc1O
99 | 82 | 81 | 33 | Cc1cc(NCCN2CCC(COc3ccc4c(NCCCc5ccccc5)ncnc4c3)CC2)c2cccc(C)c2n1
90 | 80 | 70 | 35 | COc1ccc2c(NCCN3CCC(COc4ccc5c(NCCCc6ccccc6)ncnc5c4)CC3)ccnc2c1
0 | 49 | 35 | 0 | c1ccc(CCCNc2ncnc3cc(OCC4CCN(CCNc5cncc6ccccc56)CC4)ccc23)cc1
79 | 82 | 0 | 0 | Fc1ccc2nccc(NCCN3CCC(COc4ccc5c(NCCCc6ccccc6)ncnc5c4)CC3)c2c1
13 | 0 | 0 | 0 | FC(F)(F)c1cc(NCCN2CCC(COc3ccc4c(NCCCc5ccccc5)ncnc4c3)CC2)c2ccccc2n1
55 | 58 | 26 | 13 | Cc1cc(NCCN2CCC(COc3ccc4c(NCCCc5ccccc5)ncnc4c3)CC2)ccn1
0 | 0 | 0 | 0 | c1ccc(CCCNc2ncnc3cc(OCC4CCN(CCNc5ccc6ccccc6c5)CC4)ccc23)cc1
81 | 93 | 72 | 65 | c1ccc(CN2CCC(Nc3ncnc4cc(OCC5CCN(CCNc6ccnc7ccccc67)CC5)ccc34)CC2)cc1
99 | 68 | 16 | 0 | Nc1ncnc2cc(OCC3CCN(CCNc4ccnc5ccccc45)CC3)ccc12
97 | 100 | 10 | 42 | Clc1ccccc1CCNc1ncnc2cc(OCC3CCN(CCNc4ccnc5ccccc45)CC3)ccc12
8 | 83 | 53 | 0 | CC(C)c1ccc(CCNc2ncnc3cc(OCC4CCN(CCNc5ccnc6ccccc56)CC4)ccc23)cc1
12 | 45 | 38 | 0 | c1ccc(CCCNc2ncnc3cc(OCC4CCN(CCNc5cnc6ccccc6c5)CC4)ccc23)cc1
0 | 65 | 37 | 0 | Nc1ccc(NCCN2CCC(COc3ccc4c(NCCCc5ccccc5)ncnc4c3)CC2)cc1
 | 72 | 70 |  | Cc1cc(Nc2ccc(NC(=O)c3ccc(Nc4ccnc5ccccc45)cc3)cc2)nc(N)n1
100 | 93 | 0 | 59 | NS(=O)(=O)c1ccc(CCNc2ncnc3cc(OCC4CCN(CCNc5ccnc6ccccc56)CC4)ccc23)cc1
90 | 85 | 59 | 0 | c1ccc(CCCNc2ncnc3cc(OCCCNCCNc4ccnc5ccccc45)ccc23)cc1
